The test system of assay [1] is MCF10A cells. Put plainly: Cell proliferation screen (SYBR Green, Biomek FX). It is filed as cell-based, human. The note with it: 50 μM; percentage of values obtained with DMSO alone. As to the method: The ability of the compounds identified by CADD to inhibit proliferation of normal mammary epithelial MCF10A cells and colon carcinoma HCT116 cells was determined using a Biomek FX Laboratory Automation Workstation (Beckman Coulter, Inc., Fullerton, Calif.). On day 0, 20 μl of complete medium containing the appropriate number of cells (150-300) was plated per well of a 384-well tissue plate (Fisher Scientific, Hampton, N.H.) and incubated overnight at 37° C. with 5% CO2 and 90% humidity. Next day, day 1, compounds were prepared by serial dilution with complete medium to yield the concentration 100 μM, and 20 μl was added to each well containing 20 μl of medium and cells yielding the final concentration 50 μM in 40 μl volume. Plates were incubated for additional 3 days (days-2-5) until control cells (0.5% DMSO) reached ˜70-80% confluency. On day 6, 40 μl of lysis/detection solution containing 1.2% Igepal CA-630 (Sigma) and a 1:1000 dilution of SYBR Green I nucleic acid stain (Molecular Probes, Eugene, Oreg.) was added to each well. Following an overnight incubation at 37° C., total fluorescence was measured using a Fluorostar Galaxy plate reader with a 485 nm excitation filter and 520 nm emission filter set (BMG Labtech, Inc., Durham, N.C.). Data was exported to a custom program that determined growth inhibition by dividing each individual fluorescence value by the average of fluorescence values obtained with cells treated with DMSO alone.
The 192 human DNA ligase inhibitors were screened in parallel for effects on proliferation and the ability to potentiate the effects of several DNA damaging agents using two cell human lines, a colon cancer line HCT116 and a normal breast epithelial cell line MCF10A using a Biomek FX Laboratory Automation Workstation as described (23). The DNA damaging agents used, methyl methanesulfonate (MMS), camptothecin, cis-platinum, 3 aminobenzamide and ionizing radiation, are representatives of classes of agents used to treat cancer. Briefly, HCT116 and MCF10A cells were plated in 96 well plates such that the cultures were about 80% confluent after 5 days incubation. Compounds were added to the cultures at either 15 μM or 50 μM 1 day after plating. After incubation for 3 days, cell lysed in a solution containing 1.2% Igepal CA-630 and SYBR green that stains DNA (1:1000, Molecular Probes, Eugene, Oreg.). Subsequently, fluorescence was measured per well. The studies with DNA damaging agents were performed as follows. […] For ionizing radiation, cells were pre-incubated with the compounds at 50 μM for 1 hour prior to exposure to 2 gray of ionizing radiation. Cultures were incubated for 3 days and then treated as above.

For assay [2], the target named is T1, hLigI (Homo sapiens, UniProt P18858).
T1 construct: made in house
T1 sequence (P18858 whole entry): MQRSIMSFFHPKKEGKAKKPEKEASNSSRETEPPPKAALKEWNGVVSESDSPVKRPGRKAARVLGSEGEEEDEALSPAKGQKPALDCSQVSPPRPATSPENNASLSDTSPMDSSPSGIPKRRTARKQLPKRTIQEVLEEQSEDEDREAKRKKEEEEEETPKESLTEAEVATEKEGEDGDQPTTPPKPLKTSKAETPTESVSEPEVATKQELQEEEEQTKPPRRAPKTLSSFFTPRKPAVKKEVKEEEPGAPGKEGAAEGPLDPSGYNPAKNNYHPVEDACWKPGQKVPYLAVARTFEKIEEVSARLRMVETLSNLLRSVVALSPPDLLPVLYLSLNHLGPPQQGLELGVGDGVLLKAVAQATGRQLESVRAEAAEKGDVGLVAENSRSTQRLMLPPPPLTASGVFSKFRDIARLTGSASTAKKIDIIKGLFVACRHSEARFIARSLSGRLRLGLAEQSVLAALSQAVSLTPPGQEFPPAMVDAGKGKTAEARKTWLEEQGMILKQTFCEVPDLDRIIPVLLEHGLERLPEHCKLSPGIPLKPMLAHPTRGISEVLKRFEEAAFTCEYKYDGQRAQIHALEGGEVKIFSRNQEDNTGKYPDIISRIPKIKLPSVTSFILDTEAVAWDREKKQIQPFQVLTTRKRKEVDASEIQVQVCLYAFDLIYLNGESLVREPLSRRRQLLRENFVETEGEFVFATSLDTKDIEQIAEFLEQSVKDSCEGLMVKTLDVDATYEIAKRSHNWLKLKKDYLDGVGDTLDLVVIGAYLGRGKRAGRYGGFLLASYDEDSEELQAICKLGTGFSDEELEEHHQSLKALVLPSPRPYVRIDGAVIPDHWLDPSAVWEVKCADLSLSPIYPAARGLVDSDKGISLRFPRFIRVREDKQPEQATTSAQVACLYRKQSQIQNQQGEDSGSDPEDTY
Briefly: High-throughput fluorescence-based DNA joining (ligation) assay. It is filed as biochemical. The note with it: for inhibition at 100 µM: read-out: % of inhibition @ 100 μM (Helen's data) hLigI. Here is the method:
Candidate ligase inhibitors identified by CADD were assayed for their ability to inhibit hLigI and T4 DNA ligase using a high-throughput, fluorescence energy transfer-based DNA joining assay (22). Duplicate reactions (30 μL) containing 10 pmol of nicked DNA substrate and either 0.25 pmol of hLigI or 10 units of T4 DNA ligase were incubated in the presence or absence of 100 μmol/L of the putative inhibitor. DNA binding by the candidate DNA ligase inhibitors was measured by displacement of ethidium bromide from DNA as previously described (30).
(§1) The method for screening compounds comprises testing the compound for the ability to inhibit human DNA ligases I, III and IV with a high throughput fluorescence-based ligation assay. In this assay, phosphodiester bond formation covalently links together two oligonucleotides, one of which is a fluorescent donor AF488 that is 11 nucleotides from the 3′ terminus and the other contains a fluorescence acceptor and quencher, BHQ1 that is 15 nucleotides from the 5′ terminus. When these oligonucleotides are present in separate duplexes and in the same nicked or intact duplex, there is no significant quenching of fluorescence because the donor and acceptor are too far apart. As single-strands neither the AF488 oligonucleotide nor the BHQ1 oligonucleotides have significant secondary structure. However, when these oligonucleotides are ligated together, the resultant single strand forms a stable hairpin structure, in which the AF488 and BHQ1 groups are very close together, resulting in efficient intra-molecular quenching of fluorescence. Thus, in the DNA joining assay, the DNA substrate is denatured after incubation with the DNA ligase and then renatured in the presence of a 20-fold excess of an oligonucleotide that is identical to the ligated strand containing the fluorescent door and acceptor except that it lacks these modifications. Using this assay, DNA joining, which results in reduced fluorescence at 518 nm, can be measured rapidly, quantitatively and with high-throughput using a fluorescence plate reader.
(§2) Applicants developed a novel high throughput fluorescence-based ligation assay by modifying the sequence of the oligos to optimize hairpin formation by the single strand ligated product of the high throughput fluorescence-based ligation assay of Chen et al (22). […] Compound stock solutions, which were 10 mM in 0.5% DMSO, were diluted in 0.5% DMSO. Human DNA ligases I and III were assayed with a nicked DNA substrate whereas as the substrate for human DNA ligase IV was two oligonucleotide duplexes with short complementary single strand ends.

Assay [3] relates to MCF10A cells. Put plainly: MTT cell growth assay. The following applies: for IC50: Homo sapiens, MCF-10A. It is filed as cell-based, human. As to the method: (§3) The activity of hits from the initial screen was further validated using the MTT assay. Briefly, MCF10A and HCT116 cells were seeded in 96 well plates at 300 and 1200 cells per well, respectively, and allowed to adhere overnight. The following day, serial dilutions of compounds in media were added to the cells in a final volume 200 μl. After incubation for 5 days, MTT reagent (3-(4,5-dimthylthiazol-2-yl)-2,5-diphenyltatrazolium) was added and incubation was continued for 4 h. Formazan crystals generated by reduction of the MTT reagent in mitochondria were solubilized with isopropanol prior to the measurement of absorbance at 560 nm wavelength in a plate reader.
To extend the results of the […] cell culture screening assay, a subset of compounds were tested in larger cultures. Different concentrations of Compounds 67 and 151 were added to asynchronous subconfluent populations of HCT116 and MCF10A cells. Asynchronous subconfluent populations of HCT116 and MCF10A cells were pre-treated with different concentrations of compound 64 prior to the addition of 3 aminobenzamide (2 mM) MMS (100 μM) or cis-platinum (1 μM). After incubation for 5 days, cell growth was measured by the MTT assay (16).
(In general: Tetrazolium assays rely on reduction of a dye to a coloured formazan, in cell work by metabolically active cells.)

For assay [4], the target named is human DNA ligase IV (Homo sapiens, UniProt P49917). Put plainly: High-throughput fluorescence-based DNA joining (ligation) assay. The note with it: 100 μM; for inhibition at 100 µM: read-out: % of inhibition @ 100 μM (Helen's data) hLigIV. It is filed as biochemical.
Sequence of human DNA ligase IV (P49917 whole entry): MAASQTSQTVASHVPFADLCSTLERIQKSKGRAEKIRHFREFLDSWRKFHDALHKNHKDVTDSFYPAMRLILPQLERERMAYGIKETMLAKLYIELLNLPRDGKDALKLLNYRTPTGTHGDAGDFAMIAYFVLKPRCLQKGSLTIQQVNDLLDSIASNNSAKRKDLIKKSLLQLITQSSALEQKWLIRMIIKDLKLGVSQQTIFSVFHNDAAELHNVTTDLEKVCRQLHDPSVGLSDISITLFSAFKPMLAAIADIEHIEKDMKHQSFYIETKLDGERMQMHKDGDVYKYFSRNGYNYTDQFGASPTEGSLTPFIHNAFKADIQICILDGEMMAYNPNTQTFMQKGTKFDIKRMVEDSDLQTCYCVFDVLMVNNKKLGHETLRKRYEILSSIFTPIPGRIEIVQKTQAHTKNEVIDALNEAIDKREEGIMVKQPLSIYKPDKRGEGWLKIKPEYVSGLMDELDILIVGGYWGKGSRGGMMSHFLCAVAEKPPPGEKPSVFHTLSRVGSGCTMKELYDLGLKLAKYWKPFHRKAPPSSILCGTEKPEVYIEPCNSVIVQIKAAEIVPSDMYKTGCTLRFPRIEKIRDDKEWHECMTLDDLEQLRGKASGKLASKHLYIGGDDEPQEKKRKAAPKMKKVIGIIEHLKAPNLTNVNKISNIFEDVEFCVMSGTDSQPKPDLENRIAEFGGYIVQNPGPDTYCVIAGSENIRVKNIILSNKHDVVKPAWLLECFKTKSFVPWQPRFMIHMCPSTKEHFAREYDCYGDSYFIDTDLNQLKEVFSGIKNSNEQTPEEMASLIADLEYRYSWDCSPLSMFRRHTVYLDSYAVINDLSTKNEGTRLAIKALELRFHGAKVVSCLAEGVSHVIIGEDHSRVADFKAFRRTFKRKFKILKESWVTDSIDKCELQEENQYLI
Sequence of human DNA ligase IV (Q13426 whole entry partner): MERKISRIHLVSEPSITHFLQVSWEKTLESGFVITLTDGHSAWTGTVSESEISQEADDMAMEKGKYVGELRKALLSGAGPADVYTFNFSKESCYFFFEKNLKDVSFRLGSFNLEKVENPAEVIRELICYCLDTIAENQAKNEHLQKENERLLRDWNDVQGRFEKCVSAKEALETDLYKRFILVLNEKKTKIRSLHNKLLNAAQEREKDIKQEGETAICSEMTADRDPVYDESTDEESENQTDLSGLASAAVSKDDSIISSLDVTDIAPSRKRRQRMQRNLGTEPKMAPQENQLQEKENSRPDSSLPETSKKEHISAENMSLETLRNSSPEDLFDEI
Source text: as §1, §2

Assay [5] deals with T2, human DNA ligase III (Homo sapiens, UniProt P49916).
T2 sequence (P49916 1-862 isoform P49916-4): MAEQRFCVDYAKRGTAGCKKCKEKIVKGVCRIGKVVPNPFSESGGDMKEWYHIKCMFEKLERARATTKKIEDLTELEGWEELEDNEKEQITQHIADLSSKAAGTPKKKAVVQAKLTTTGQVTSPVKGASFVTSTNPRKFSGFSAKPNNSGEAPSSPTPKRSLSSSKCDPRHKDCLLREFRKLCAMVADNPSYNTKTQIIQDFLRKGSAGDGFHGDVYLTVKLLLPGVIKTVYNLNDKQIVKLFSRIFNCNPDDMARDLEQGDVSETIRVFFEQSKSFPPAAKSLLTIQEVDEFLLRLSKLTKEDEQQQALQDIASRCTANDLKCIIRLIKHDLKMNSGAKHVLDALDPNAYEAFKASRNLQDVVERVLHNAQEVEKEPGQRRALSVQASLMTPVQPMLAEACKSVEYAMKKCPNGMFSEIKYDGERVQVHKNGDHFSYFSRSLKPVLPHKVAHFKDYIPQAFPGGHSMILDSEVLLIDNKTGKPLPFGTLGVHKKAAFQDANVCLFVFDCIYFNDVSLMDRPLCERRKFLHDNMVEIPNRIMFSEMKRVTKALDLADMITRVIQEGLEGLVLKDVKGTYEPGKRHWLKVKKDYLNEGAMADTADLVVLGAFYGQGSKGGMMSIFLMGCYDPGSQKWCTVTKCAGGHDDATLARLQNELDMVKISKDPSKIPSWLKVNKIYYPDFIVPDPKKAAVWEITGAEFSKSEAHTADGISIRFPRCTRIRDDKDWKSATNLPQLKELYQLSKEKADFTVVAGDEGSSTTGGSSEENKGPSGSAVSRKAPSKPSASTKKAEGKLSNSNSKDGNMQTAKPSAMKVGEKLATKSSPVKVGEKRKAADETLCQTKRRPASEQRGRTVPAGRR
The description is as above. The following applies: for inhibition at 100 µM: read-out: % of inhibition @ 100 μM (Helen's data) hLigIII. It is filed as biochemical.
Source text: as §1, §2

Assay [6] deals with MCF10A cells. Put plainly: Screen for potentiation of DNA damaging agents (MMS, camptothecin, cis-platinum, 3 aminobenzamide, ionizing radiation). It is filed as cell-based, human. The note with it: compound alone vs combination with MMS (100 μM); 1 = no sensitization. An excerpt:
The 192 human DNA ligase inhibitors were screened in parallel for effects on proliferation and the ability to potentiate the effects of several DNA damaging agents using two cell human lines, a colon cancer line HCT116 and a normal breast epithelial cell line MCF10A using a Biomek FX Laboratory Automation Workstation as described (23). The DNA damaging agents used, methyl methanesulfonate (MMS), camptothecin, cis-platinum, 3 aminobenzamide and ionizing radiation, are representatives of classes of agents used to treat cancer. Briefly, HCT116 and MCF10A cells were plated in 96 well plates such that the cultures were about 80% confluent after 5 days incubation. Compounds were added to the cultures at either 15 μM or 50 μM 1 day after plating. After incubation for 3 days, cell lysed in a solution containing 1.2% Igepal CA-630 and SYBR green that stains DNA (1:1000, Molecular Probes, Eugene, Oreg.). Subsequently, fluorescence was measured per well. The studies with DNA damaging agents were performed as follows. […] Cultures were incubated for 3 days and then treated as above.

Assay [7] concerns HCT116 cells. Put plainly: MTT cell growth assay. It is filed as cell-based, human. The following applies: Homo sapiens, HCT-116. Here is the method: as §3
After incubation for 5 days, cell growth was measured by the MTT assay (16).

The mark [8] stands for this setting: sections 'high concentrations (~50 μM)' and 'active in vitro that decreased cell growth', same figures given in μM elsewhere in Table 6, read-out: IC50 MCF10A (head without unit).

Read-outs that look alike come from different tables or passages of the source. Marks after values point to notes of the source that are not given here.

Regarding `O=C1N/C(=N\c2ccccc2)S/C1=C/c1ccc(-c2cccc(C(=O)O)c2)o1` [Compound 202], in assay [1], the “Growth_Inh % (50 μM) MCF10A” value came to 50%. For the same compound, in assay [2] (in vitro screen, 100 μmol/L, the 15 hLigI inhibitors inhibited by >50%), the “inhibition of hLigI (DNA ligase I), in words” value was “inhibited hLigI”.
Regarding `CC(C(=O)Nc1cccc(C(=O)O)c1)N(C)S(=O)(=O)c1ccccc1` (stereo not drawn) [Compound 199], the “inhibition of cell proliferation of MCF10A at 50 μM (MTT)” value in assay [3] (50 μM, numbers printed under MCF10A in r92-r106: 79, 124, 130, 193, 197, 198, 199 (30%), 214, 221) is 199^t (30%). Also, in assay [4], the “% of inhibition @ 100 μM (Helen's data) hLigIV” value is recorded as “NI (NI- no inhibition)”. Moreover, in assay [5] (100 μM), the “% of inhibition @ 100 μM (Helen's data) hLigIII” value is “NI (NI- no inhibition)”. Moreover, in assay [2] (100 μM), the “% of inhibition @ 100 μM (Helen's data) hLigI” value is on record as “NI (NI- no inhibition)”.
With `C=CCN1C(=O)/C(=C\c2ccccc2C(=O)O)SC1=S` [Compound 159], the IC50 is > 50 µM in assay [3] (setting [8]); 50 µM in assay [7] (cell growth, compound alone, read-out: IC50 (μM) HCT116); ≥ 50 µM in assay [7] (sections 'high concentrations (~50 μM)' and 'active in vitro that decreased cell growth', same figures given in μM elsewhere in Table 6, read-out: IC50 HCT116 (head without unit)). The inhibition at 100 µM in assay [4], in assay [5] and in assay [2] (100 μM) was < 20% in each case. Moreover, in assay [6], the “MMS: Ratios of IC50 MCF10A” value was “Ni”.
Turning to `O=c1[nH]cc(/C=N/Nc2ncnc3[nH]cnc23)c(=O)[nH]1` [Compound 208], the half-inhibitory concentration (IC50) in assay [3] (cell growth, compound alone, read-out: IC50 (μM) MCF10A) was 40 µM; in assay [3] (setting [8]), 40 µM. The figures for the inhibition at 100 µM in assay [4], in assay [5] and in assay [2] (100 μM) were < 20%, 24% and 21%, respectively.

By IC50 is commonly meant the concentration needed to halve the response being measured. The term inhibition denotes how much of the control response was suppressed.

For the origin of these results see patent publication US9757375B2, “Compounds that inhibit human DNA ligases and methods of treating cancer” (University of Maryland, Baltimore, priority 2007, dated 2017).
